The source of these data is patent US20250025438A1, “Derivative of aspartic acid and use thereof in treatment of metabolic diseases such as hepatic fibrosis and non-alcoholic hepatitis” (SHENZHEN JINGTAI TECHNOLOGY CO., LTD., priority 2021, published 2025).

Structures can show the parent of a compound that is named as a salt.

For one assay, the system named is COL3A1. Description: In vitro efficacy in semi-activated LX2 cells, qPCR: COL3A1. The format is cell-based. To be noted: Homo sapiens, LX-2, 50 µM, 48 hours, Q-PCR, read-out: COL3A1 mRNA inhibition rate. Background: Real-time PCR tracks product formation cycle by cycle.
The next assay deals with collagen III. Briefly: Semi-activated LX2 cells, Western blot: collagen III protein. The format is cell-based. To be noted: 50-400 μM, 48 hours, FIG. 1, vs 50 μM aspartic acid. On the procedure:
4. Western blotting to detect protein expression level
4.1 Extraction of total cell protein: The cells were taken out, the original culture medium was discarded, 1 to 2 mL of 1×PBS was added, washing was performed twice, digestion was performed with trypsin, the supernatant was discarded, the cells at the bottom of the tube were gently moved by flicking, and then 1 mL of PBS was added again to wash the cells twice; after being centrifuged at 1200 rpm for 5 minutes, the supernatant was completely discarded, the cells at the bottom of the tube was mixed well by flicking. Depending on the amount of cells, 50 to 100 μL of protein lysis buffer containing protease inhibitor and phosphatase inhibitor was added, the cells were mixed thoroughly by pipetting, placed on ice and lysed for 30 minutes, then centrifuged at 12,000 rcf for 15 minutes at 4° C., and the supernatant was pipetted and transferred into a new EP tube to obtain the total cell protein, which could be directly used for subsequent determination of protein concentration or stored at −80° C.
4.2 Determination of protein concentration by BCA method: BCA reagent solution A and solution B were mixed well at a ratio of 50:1 to prepare a working solution; 5 μL of the sample to be tested was taken, added into 95 μL of deionized water, mixed, and diluted 20 times, and 20 μL of the diluted sample to be tested was taken and added to a 96-well plate; after 200 μL of the working solution was added, the 96-well plate was placed in a 37° C. incubator and incubated for 30 min, and then tested on the machine.
4.3 Protein denaturation: 100 μg of each of samples was taken respectively, supplemented with protein lysis buffer to reach the volume of each sample, then added with 4× loading buffer at 1/3 of the total volume and mixed thoroughly, underwent denaturation at 99° C. for 10 min, centrifuged and stored at −80° C. […]

Turning to `COC(=O)C[C@H](N)C(=O)O` [Compound 6], the inhibition – broadly, the relative decrease from the control value, in per cent – at 50 µM with COL3A1 lay in the range of 25 to 50%. In the assay with collagen III, the “inhibitory effect on collagen III protein expression as compared to ASP” value (“inhibitory effect … compared to ASP” below) is “stronger inhibitory effects”.

For `COC(=O)[C@@H](N)CC(=O)O` [Compound 4], the inhibition at 50 µM with COL3A1 was in the range of 25 to 50%.

As to `N[C@@H](CCC(=O)O)C(=O)O` [Compound 47], the inhibition at 50 µM in the assay with COL3A1 was 10 to 25%. Besides, in the assay on collagen III, the “inhibitory effect … compared to ASP” value is “stronger inhibitory effects”.

In the case of `COC(=O)C[C@H](N)C(=O)OCOC(=O)[C@@H](N)CC(=O)OC` [Compound 54, 4-dimethyl O′1,01-methylene (2S,2'S)-bis (2-aminosuccinate) hydrochloride], the inhibition at 50 µM with COL3A1 fell in the range of 10 to 25%. Moreover, the “inhibitory effect … compared to ASP” value with collagen III is on record as “stronger inhibitory effects”.
